Results reported in patent publication US20240262835A1, “PRMT5 INHIBITING COMPOUNDS AND USES THEREOF” (ANTENGENE DISCOVERY LIMITED, priority 2023, published 2024).

Key:
[1] = Hepatic metabolic stability (HMS) assay, cynomolgus monkey hepatocytes; conditions: cynomolgus monkey, cryopreserved hepatocytes
[2] = Hepatic metabolic stability (HMS) assay, dog hepatocytes; conditions: dog, cryopreserved hepatocytes
[3] = Caco-2 cell monolayer model assay (permeability); assay type: in vitro ADME; conditions: human
Description: (§1) Caco-2 cell model was used to assess the permeability of the compounds disclosed herein. Caco-2 cell was obtained from the CO-BIOR and the CO-BIOR Number is CBP60025. The cell generation used in the experiment was P9.
(§2) 1) […] of cell culture medium was added to each well of the Transwell reservoir, respectively. And then the PET transwell plates were incubated at 37° C., 5% CO2 for 1 hour before cell seeding.
(§3) 2) Caco-2 cells were diluted to 3.43×10^5 cells/mL with culture medium and 100 μL of cell suspension were dispensed into the filter well of the 96-well PET Transwell plate. Cells were cultivated for 14-18 days in a cell culture incubator at 37° C., 5% CO2, 95% relative humidity. Cell culture medium was replaced every other day, beginning no later than 24 hours after initial plating.
(§4) 3) Measure the electrical resistance across the monolayer by using Millicell Epithelial Volt-Ohm measuring system. Record the electrical resistance for each well. Once all wells have been measured, return the plate(s) to the incubator.
(§5) 4) TEER of each well is calculated by the equation below. The TEER value of each well should be greater than 230 ohms·cm^2.
(§6) 1) Remove the Caco-2 plate(s) from the incubator. Wash the monolayer twice with pre-warmed HBSS (10 mM HEPES, pH 7.4). Then incubate the plate(s) at 37° C. for 30 minutes.
(§7) 2) Prepare stock solutions of control compounds in DMSO at 5 mM and dilute with HBSS (10 mM HEPES, pH 7.4) to get 5 μM working solutions. Prepare stock solutions of test compounds in DMSO at 1 mM and dilute with HBSS (10 mM HEPES, pH 7.4) to get 1 μM working solutions. Digoxin is used as the reference substrate of Pgp. Atenolol is used as the low permeability marker, minoxidil is used as the high permeability marker.
(§8) 3) To determine the rate of drug transport in the apical to basolateral direction, add 100 μL of the working donor solutions (without inhibitor) to the Transwell insert (apical compartment). Fill the wells in the receiver plate (basolateral compartment) with 300 μL of transport buffer. To determine the rate of drug transport in the basolateral to apical direction, add 300 μL of the working donor solutions (without inhibitor) to the receiver plate wells (basolateral compartment). Fill the Transwell insert (apical compartment) with 100 μL of transport buffer.
(§9) 4) Transfer 50 μL samples from the working solutions to 300 μL of cold MeOH:acetonitrile=1:1 with IS (50 ng/ml Labetalol, 50 ng/ml Tolbutamide) to prepare the time 0 samples. Incubate the Transwell plate at 37° C., 5% CO2 with shaking at 60 rpm on a rotary shaker for 2 hours.
(§10) 5) At the end of the transport period, transfer 50 μL of samples from apical and basolateral wells to a new 96-well plate. Add 300 μL of quenching solution (MeOH:acetonitrile=1:1 with IS (50 ng/ml Labetalol, 50 ng/mL Tolbutamide)) into each well of the plate(s). Vortex for 10 minutes. Samples are centrifuged at 4000 rpm g for 30 minutes. An aliquot of 100 μL of the supernatant is mixed with an appropriate volume of ultra-pure water (depends on the LC-MS/MS signal response and peak shape) before LC-MS/MS analysis.
(§11) 6) To determine the Lucifer Yellow leakage after 2-hour transport period, prepare stock solutions of Lucifer yellow in DMSO and dilute with HBSS (10 mM HEPES, pH 7.4) to reach the final concentration of 100 μM. Add 100 μL of the Lucifer yellow solution to the apical compartment. Fill the basolateral compartment with 300 μL of HBSS (10 mM HEPES, pH 7.4). Incubate the plate(s) at 37° C. for 30 minutes and remove 80 μL directly from the apical and basolateral wells and transfer to new 96 wells plates. Measure Lucifer Yellow fluorescence (to monitor monolayer integrity) in a fluorescence plate reader at 485 nm excitation and 530 nm emission.
(§12) 7) Discard the remaining solution in the cell plate, Add 300 μL of quenching solution (MeOH:acetonitrile=1:1 with IS (50 ng/ml Labetalol, 50 ng/mL Tolbutamide)) into each well of the plate(s), blow up and down and mix well for 5 times. […]

in vitro = conditions: human, microsomes
CYP2D6 = CYP2D6 (Homo sapiens (Human), UniProt P10635); test: CYP isoforms inhibitory assay in human liver microsome, CYP2D6; conditions: read-out: IC50 CYP2D6, substrate dextromethorphan
Description: (§13) CYP isoforms inhibitory activities of test compounds were measured in human liver microsome.
(§14) Preparation details of these substrates are given in below table. The substrate stock solution was stored in a −20° C. freezer. Prior to use, the substrate stock solution was removed from the freezer and allowed to rise to room temperature. Then the substrate stock solution was mixed on a whirly mixer for 30 seconds.
(§15) HLMs were stored in a −80° C. freezer. Prior to use, the pooled HLM was removed from the freezer and allowed to thaw in a 37° C. water bath and then stored on wet ice.
(§16) The positive control inhibitors and their concentrations used by each isozyme are summarized below.
(§17) All samples were incubated in a 37° C. water bath, with three parallels for each concentration of the test compound and two parallels for each concentration of the positive control inhibitor. 100 μL of microsome working solution was taken and added 2 μL of the test product or positive inhibitor working solution. 2 μL solvents was added to the solvent control, and put in a water bath to pre-incubate for 10 min. After pre-incubation, 98 μL of NADPH regeneration solution was added to all samples to start the reaction. Then the mixture was put back in the water bath and incubated for a certain period of time.
(§18) The reaction was quenched by 200 μL stop solution. […]
(§19) IC50 values were determined using 3- or 4-parameter logistic equation.

Caco-2 cell monolayer = Caco-2 cell monolayer model assay (permeability); assay type: in vitro ADME; conditions: Caco-2, 1 μM
Description: as §1, §2, §3, §4, §5, §6, §7, §8, §9, §10, §11, §12

CYP2C9 = CYP2C9 (Homo sapiens (Human), UniProt P11712); test: CYP isoforms inhibitory assay in human liver microsome, CYP2C9; assay type: in vitro ADME; conditions: substrate diclofenac
Description: as §13, §14, §15, §16, §17, §18, §19

[4] = Liver microsome metabolic stability (LMS) assay, cynomolgus monkey
[5] = Liver microsome metabolic stability (LMS) assay, dog

Sequence of CYP2D6 (P10635 whole entry, canonical isoform): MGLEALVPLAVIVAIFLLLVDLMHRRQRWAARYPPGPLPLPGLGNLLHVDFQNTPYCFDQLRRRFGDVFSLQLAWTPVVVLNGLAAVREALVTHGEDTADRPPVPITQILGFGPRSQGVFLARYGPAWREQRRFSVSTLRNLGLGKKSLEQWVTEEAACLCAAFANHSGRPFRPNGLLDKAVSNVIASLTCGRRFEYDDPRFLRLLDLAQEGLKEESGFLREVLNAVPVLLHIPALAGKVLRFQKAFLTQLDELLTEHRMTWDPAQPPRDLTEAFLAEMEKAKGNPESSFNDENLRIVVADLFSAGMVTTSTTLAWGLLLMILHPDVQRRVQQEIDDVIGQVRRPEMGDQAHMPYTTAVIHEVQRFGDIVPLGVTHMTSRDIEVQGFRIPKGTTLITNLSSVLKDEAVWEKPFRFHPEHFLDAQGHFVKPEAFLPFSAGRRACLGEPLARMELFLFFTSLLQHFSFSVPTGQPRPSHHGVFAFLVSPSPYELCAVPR
Sequence of CYP2C9 (P11712 whole entry, canonical isoform): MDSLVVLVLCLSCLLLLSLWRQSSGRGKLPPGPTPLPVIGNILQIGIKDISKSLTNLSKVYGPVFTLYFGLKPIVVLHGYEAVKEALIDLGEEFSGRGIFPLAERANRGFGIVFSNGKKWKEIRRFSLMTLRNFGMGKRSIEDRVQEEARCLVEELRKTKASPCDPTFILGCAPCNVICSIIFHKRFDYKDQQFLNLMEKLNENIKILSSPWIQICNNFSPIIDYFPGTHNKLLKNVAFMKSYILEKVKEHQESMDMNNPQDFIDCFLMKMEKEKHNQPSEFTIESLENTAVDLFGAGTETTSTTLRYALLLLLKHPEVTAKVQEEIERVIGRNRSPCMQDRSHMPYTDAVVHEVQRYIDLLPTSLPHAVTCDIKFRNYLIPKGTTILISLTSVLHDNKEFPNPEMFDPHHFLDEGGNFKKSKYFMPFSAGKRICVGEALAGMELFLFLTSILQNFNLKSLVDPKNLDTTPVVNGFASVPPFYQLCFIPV

SMILES: CN(C(=O)c1ccc2nc(N)c3cncn3c2c1)[C@@H]1COc2cc(C(F)(F)F)ccc21 [Compound 12]
- half-life at 1 μM [1]: 1.11 h
- half-life at 1 μM [2]: 2.12 h
- efflux ratio at 2 h, 1 μM ([3]; Caco-2, pH 7.4): 1.98
- Papp A→B at 2 h, 1 μM ([3]; Caco-2, 1 μM, 2 hours, pH 7.4): 6.07 ×10⁻⁶ cm/s
- Papp B→A at 2 h, 1 μM ([3]; Caco-2, 1 μM, 2 hours, pH 7.4): 12 ×10⁻⁶ cm/s
- half-life at 1 μM (in vitro): > 2.42 h

SMILES: CN(C(=O)c1ccc2nc(N)c3cncn3c2c1)C1COc2cc(C(F)(F)F)ccc21 (stereo not shown) [Compound 17]
- IC50 (CYP2D6): > 30 µM
- Recovery AP − BL (Caco-2 cell monolayer): 81.0%
- Recovery BL − AP (Caco-2 cell monolayer): 85.6%
- Papp (A−B) (Caco-2 cell monolayer; 2 hours, pH 7.4): 6.70 10^−6 cm/s
- Papp (B−A) (Caco-2 cell monolayer; 2 hours, pH 7.4): 11.8 10^−6 cm/s
- Efflux Ratio (Caco-2 cell monolayer; Papp (B-A)/Papp (A-B)): 1.76
- IC50 (CYP2C9): > 30 µM

SMILES: CN(C(=O)c1cc2c(cn1)nc(N)c1cncn12)C1CC(F)(F)c2cc(C(F)(F)F)ccc21 (stereo not shown) [Compound 24]
- CLint (mic) C ([4]; cynomolgus monkey liver microsome): 9.9 µL/min/mg
- T1/2 of LMS, C ([4]; cynomolgus monkey liver microsome 0.5 mg protein/mL, 1 μM, NADPH): 2.338 h
- CLint (liver) C ([4]; cynomolgus monkey liver microsome, scaled to liver): 13.3 mL/min/kg
- CLint (mic) D ([5]; dog liver microsome): <9.6 µL/min/mg
- T1/2 of LMS, D ([5]; dog liver microsome 0.5 mg protein/mL, 1 μM, NADPH): >2.42 h
- CLint (liver) D ([5]; dog liver microsome, scaled to liver): <13.8 mL/min/kg
